Common to all, as to format: cell-based
Experiment [1] has as its system third stage larvae of Haemonchus contortus. Put plainly: Haemonchus contortus, Larvae Stage 3 (HcL3) In Vitro Assay. To be noted: Haemonchus contortus, 96 h.
Experiment [2] deals with microfilariae of Dirofilaria immitis. Put plainly: Dirofilaria immitis, Microfilaria (DiMf) In Vitro Assay. To be noted: Dirofilaria immitis, 72 h, read-out: DiMf MED, Minimum Effective Dose, D. immitis microfilariae motility, in vitro.
Experiment [3] has as its system D. immitis L4 larvae. Put plainly: Dirofilaria immitis, L4 Stage (DiL4) In Vitro Assay. The note with it: for minimal effective concentration: Dirofilaria immitis, 72 h, read-out: DiL4 MED, Minimum Effective Dose, D. immitis L4 larvae motility, in vitro; for DiMf/DiL4: larval stage selectivity, ratio of DiMf MED to DiL4 MED.
Setting [4] is: read-out: HcL3 MED, Haemonchus contortus third stage larvae in vitro, class mark appended to the Ex # in Table 3.
Where [5] appears, read: read-out: HcL3 MED, Minimum Effective Dose, H. contortus third stage larvae, approximately 96 hours.
[6] abbreviates: read-out: HcL3 MED, approximately 96 hours incubation, multiple-resistant field isolate.
Setting [7] is: read-out: HcL3 MED (symbol after Ex#), approximately 96 hours incubation, multiple-resistant field isolate.

Where two headings read alike, the source gives them in different places.

Take `CC(C)C[C@H]1C(=O)O[C@H](Cc2ccc(Cc3cnccc3C#N)cc2)C(=O)N(C)[C@@H](CC(C)C)C(=O)O[C@H](C)C(=O)N(C)[C@@H](CC(C)C)C(=O)O[C@H](Cc2ccc(Cc3cnccc3C#N)cc2)C(=O)N(C)[C@@H](CC(C)C)C(=O)O[C@H](C)C(=O)N1C` [Example 3-307, 3,3′-(((((2R,5S,8R,11S,14R,17S,20R,23S)-5,11,17,23-tetraisobutyl-4,8,10,16,20,22-hexamethyl-3,6,9,12,15,18,21,24-octaoxo-1,7,13,19-tetraoxa-4,10,16,22-tetraazacyclotetracosane-2,14-diyl)bis(methylene))bis(4,1-phenylene))bis(methylene))diisonicotinonitrile]: the minimal effective concentration in experiment [1] (setting [4]) was under 1 µM; in experiment [1] (setting [5]), 1 µM; in experiment [1] (setting [6]), at most 1 µM; in experiment [2], 0.0003 µM; in experiment [3], 0.0001 µM. Moreover, the DiMf/DiL4 in experiment [3] is listed as 3.

In the case of `COc1ncc(F)cc1Cc1ccc(C[C@H]2OC(=O)[C@H](CC(C)C)N(C)C(=O)[C@@H](C)OC(=O)[C@H](CC(C)C)N(C)C(=O)[C@@H](Cc3ccc(Cc4cc(F)cnc4OC)cc3)OC(=O)[C@H](CC(C)C)N(C)C(=O)[C@@H](C)OC(=O)[C@H](CC(C)C)N(C)C2=O)cc1` [Example 3-293, (3S,6R,9S,12R,15S,18R,21S,24R)-6,18-bis(4-((5-fluoro-2-methoxypyridin-3-yl)methyl)benzyl)-3,9,15,21-tetraisobutyl-4,10,12,16,22,24-hexamethyl-1,7,13,19-tetraoxa-4,10,16,22-tetraazacyclotetracosan-2,5,8,11,14,17,20,23-octaone], the values for the minimal effective concentration in experiment [1] (setting [5]), in experiment [2] and in experiment [3] were 5.7 µM, 0.05 µM and 0.0003 µM, respectively. Further, the DiMf/DiL4 in experiment [3] worked out at 167.

Regarding `CC(C)C[C@H]1C(=O)O[C@H](Cc2ccc(Cc3cnccc3C(F)(F)F)cc2)C(=O)N(C)[C@@H](CC(C)C)C(=O)O[C@H](C)C(=O)N(C)[C@@H](CC(C)C)C(=O)O[C@H](Cc2ccc(Cc3cnccc3C(F)(F)F)cc2)C(=O)N(C)[C@@H](CC(C)C)C(=O)O[C@H](C)C(=O)N1C` [Example 3-333, (3S,6R,9S,12R,15S,18R,21S,24R)-3,9,15,21-tetraisobutyl-4,6,10,16,18,22-hexamethyl-12,24-bis(4-((4-(trifluoromethyl)pyridin-3-yl)methyl)benzyl)-1,7,13,19-tetraoxa-4,10,16,22-tetraazacyclotetracosan-2,5,8,11,14,17,20,23-octaone], the minimal effective concentration in experiment [1] (setting [4]) is under 1 µM; in experiment [1] (setting [6]), at most 1 µM; in experiment [2], 0.003 µM; in experiment [3], 0.0002 µM. Also, in experiment [3], the DiMf/DiL4 was 17.

In the case of `CC(C)C[C@H]1C(=O)O[C@H](Cc2ccc(Cc3scnc3Cl)cc2)C(=O)N(C)[C@@H](CC(C)C)C(=O)O[C@H](C)C(=O)N(C)[C@@H](CC(C)C)C(=O)O[C@H](Cc2ccccc2)C(=O)N(C)[C@@H](CC(C)C)C(=O)O[C@H](C)C(=O)N1C` [Example 4-107, (3S,6R,9S,12R,15S,18R,21S,24R)-6-benzyl-18-(4-((4-chlorothiazol-5-yl)methyl)benzyl)-3,9,15,21-tetraisobutyl-4,10,12,16,22,24-hexamethyl-1,7,13,19-tetraoxa-4,10,16,22-tetraazacyclotetracosan-2,5,8,11,14,17,20,23-octaone], the minimal effective concentration in experiment [1] (setting [7]) is under 1 µM; in experiment [1] (setting [5]) it was 0.3 µM; in experiment [1] (setting [6]), at most 1 µM; in experiment [2] it was 0.003 µM; in experiment [3], 0.0002 µM. Moreover, the DiMf/DiL4 in experiment [3] is reported as 15.

For the molecule `CC(C)C[C@H]1C(=O)O[C@H](Cc2ccc(Cc3cccc(F)n3)cc2)C(=O)N(C)[C@@H](CC(C)C)C(=O)O[C@H](C)C(=O)N(C)[C@@H](CC(C)C)C(=O)O[C@H](Cc2ccc(Cc3cccc(F)n3)cc2)C(=O)N(C)[C@@H](CC(C)C)C(=O)O[C@H](C)C(=O)N1C` [Example 3-313, (3S,6R,9S,12R,15S,18R,21S,24R)-6,18-bis(4-((6-fluoropyridin-2-yl)methyl)benzyl)-3,9,15,21-tetraisobutyl-4,10,12,16,22,24-hexamethyl-1,7,13,19-tetraoxa-4,10,16,22-tetraazacyclotetracosan-2,5,8,11,14,17,20,23-octaone], the minimal effective concentration turned out to be 0.55 µM in experiment [1] (setting [5]), 0.003 µM in experiment [2] and 0.00055 µM in experiment [3]. Further, the DiMf/DiL4 in experiment [3] is 5.5.

For the molecule `COc1ccncc1Cc1ccc(C[C@H]2OC(=O)[C@H](CC(C)C)N(C)C(=O)[C@@H](C)OC(=O)[C@H](CC(C)C)N(C)C(=O)[C@@H](Cc3ccc(Cc4cnccc4OC)cc3)OC(=O)[C@H](CC(C)C)N(C)C(=O)[C@@H](C)OC(=O)[C@H](CC(C)C)N(C)C2=O)cc1` [Example 3-282, (3S,6R,9S,12R,15S,18R,21S,24R)-3,9,15,21-tetraisobutyl-6,18-bis(4-((4-methoxypyridin-3-yl)methyl)benzyl)-4,10,12,16,22,24-hexamethyl-1,7,13,19-tetraoxa-4,10,16,22-tetraazacyclotetracosan-2,5,8,11,14,17,20,23-octaone], the minimal effective concentration was 30 µM in experiment [1] (setting [5]), 0.005 µM in experiment [2] and 0.001 µM in experiment [3]. In addition, in experiment [3], the DiMf/DiL4 is 5.

Consider `COc1ccsc1Cc1ccc(C[C@H]2OC(=O)[C@H](CC(C)C)N(C)C(=O)[C@@H](C)OC(=O)[C@H](CC(C)C)N(C)C(=O)[C@@H](Cc3ccc(Cc4sccc4OC)cc3)OC(=O)[C@H](CC(C)C)N(C)C(=O)[C@@H](C)OC(=O)[C@H](CC(C)C)N(C)C2=O)cc1` [Example 3-110, (3S,6R,9S,12R,15S,18R,21S,24R)-3,9,15,21-tetraisobutyl-6,18-bis(4-((3-methoxythiophen-2-yl)methyl)benzyl)-4,10,12,16,22,24-hexamethyl-1,7,13,19-tetraoxa-4,10,16,22-tetraazacyclotetracosan-2,5,8,11,14,17,20,23-octaone], for which the minimal effective concentration in experiment [1] (setting [5]) is over 100 µM; in experiment [2] it was 0.03 µM; in experiment [3] it was 0.0001 µM. Besides, in experiment [3], the DiMf/DiL4 amounted to 300.

As to `CC(C)C[C@H]1C(=O)O[C@H](Cc2ccc(Cc3ccnn3CC3CC3)cc2)C(=O)N(C)[C@@H](CC(C)C)C(=O)O[C@H](C)C(=O)N(C)[C@@H](CC(C)C)C(=O)O[C@H](Cc2ccc(Cc3ccnn3CC3CC3)cc2)C(=O)N(C)[C@@H](CC(C)C)C(=O)O[C@H](C)C(=O)N1C` [Example 3-275, (3S,6R,9S,12R,15S,18R,21S,24R)-6,18-bis(4-((1-(cyclopropylmethyl)-1H-pyrazol-5-yl)methyl)benzyl)-3,9,15,21-tetraisobutyl-4,10,12,16,22,24-hexamethyl-1,7,13,19-tetraoxa-4,10,16,22-tetraazacyclotetracosan-2,5,8,11,14,17,20,23-octaone], the minimal effective concentration in experiment [1] (setting [4]) is 1 to 3.3 µM; in experiment [1] (setting [5]), 1.8 µM; in experiment [2], 0.01 µM; in experiment [3], 0.001 µM. Moreover, the DiMf/DiL4 in experiment [3] is 10.

Consider `COc1cccc(C(C)(F)c2ccc(C[C@H]3OC(=O)[C@H](CC(C)C)N(C)C(=O)[C@@H](C)OC(=O)[C@H](CC(C)C)N(C)C(=O)[C@@H](Cc4ccc(C(C)(F)c5cccc(OC)n5)cc4)OC(=O)[C@H](CC(C)C)N(C)C(=O)[C@@H](C)OC(=O)[C@H](CC(C)C)N(C)C3=O)cc2)n1` (stereo partly drawn) [Example 3-225, (3S,6R,9S,12R,15S,18R,21S,24R)-6,18-bis(4-(1-fluoro-1-(6-methoxypyridin-2-yl)ethyl)benzyl)-3,9,15,21-tetraisobutyl-4,10,12,16,22,24-hexamethyl-1,7,13,19-tetraoxa-4,10,16,22-tetraazacyclotetracosan-2,5,8,11,14,17,20,23-octaone], for which the minimal effective concentration in experiment [1] (setting [5]) was over 100 µM; in experiment [2], 0.3 µM; in experiment [3], 0.0007 µM. Also, the DiMf/DiL4 in experiment [3] came to 429.

For the molecule `CC(C)C[C@H]1C(=O)O[C@H](Cc2ccc(Cc3ccccc3)cc2)C(=O)N(C)[C@@H](CC(C)C)C(=O)O[C@H](C)C(=O)N(C)[C@@H](CC(C)C)C(=O)O[C@H](Cc2ccccc2)C(=O)N(C)[C@@H](CC(C)C)C(=O)O[C@H](C)C(=O)N1C` [Example 2-1, (3S,6R,9S,12R,15S,18R,21S,24R)-6-benzyl-18-(4-benzylbenzyl)-3,9,15,21-tetraisobutyl-4,10,12,16,22,24-hexamethyl-1,7,13,19-tetraoxa-4,10,16,22-tetraazacyclotetracosan-2,5,8,11,14,17,20,23-octaone], the minimal effective concentration was under 1 µM in experiment [1] (setting [7]); 0.65 µM in experiment [1] (setting [5]); at most 1 µM in experiment [1] (setting [6]); 0.02 µM in experiment [2]; 0.001 µM in experiment [3]. Moreover, the DiMf/DiL4 in experiment [3] stood at 20.

Turning to `CC(C)C[C@H]1C(=O)O[C@H](Cc2ccc(Cc3nccs3)cc2)C(=O)N(C)[C@@H](CC(C)C)C(=O)O[C@H](C)C(=O)N(C)[C@@H](CC(C)C)C(=O)O[C@H](Cc2ccc(Cc3nccs3)cc2)C(=O)N(C)[C@@H](CC(C)C)C(=O)O[C@H](C)C(=O)N1C` [Example 3-17, (3S,6R,9S,12R,15S,18R,21S,24R)-3,9,15,21-tetraisobutyl-4,6,10,16,18,22-hexamethyl-12,24-bis(4-(thiazol-2-ylmethyl)benzyl)-1,7,13,19-tetraoxa-4,10,16,22-tetraazacyclotetracosan-2,5,8,11,14,17,20,23-octaone], the minimal effective concentration in experiment [1] (setting [4]) was under 1 µM; in experiment [1] (setting [5]), 0.5 µM; in experiment [1] (setting [6]), at most 1 µM; in experiment [2], 0.0003 µM; in experiment [3], 0.0003 µM. In addition, the DiMf/DiL4 in experiment [3] is recorded as 1.

For the origin of these results see patent US11771738B2 (Zoetis Services LLC, priority 2018, dated 2023).
